The record followed here is PMC4014984, “The tetrapeptide core of the carrier peptide Xentry is cell-penetrating: novel activatable forms of Xentry” (Scientific Reports, 2014).

Square brackets hold non-standard residues; d marks the D form. Peptide text beside a SMILES is read from it. * marks the point of attachment. FITC = O=C1OC2(c3ccc(O)cc3Oc3cc(O)ccc32)c2ccc(NC(=S)*)cc21

For one series, the system named is MCF-7 cells. The series is described as follows: Uptake of activatable Xentry peptides with or without MMP-9 pretreatment. Particulars: then 3 h with MCF-7 cells, fluorescence or confocal microscopy.
Series [1] has as its system HepG2 cells.
A further series deals with WM-266-4 cells. The series is described as follows: Cell-penetrating ability of Xentry peptides, fluorescence microscopy. Particulars: for Uptake by WM-266-4 cells (in words): FITC-labelled L-isomeric peptides, 10 μM, 3 h, fixed cells; for Uptake by WM-266-4 cells: scored visually, labelled peptides incubated 3 h at 37°C, L-isomers in media without FCS, D-isomers with FCS.

The test system of another series is BT549 cells. The description is as above. Particulars: for Uptake by BT549 cells (in words): FITC-labelled L-isomeric peptides, 10 μM, 3 h, fixed cells; for Uptake by BT-549cells: scored visually, labelled peptides incubated 3 h at 37°C, L-isomers in media without FCS.
In series [2] the test system is HepG2 cells. The series is described as follows: Cell-penetrating ability of Xentry peptides, fluorescence/confocal microscopy. Particulars: for Uptake by HepG2 cells (in words): FITC-labelled L-isomeric peptides, 10 μM, 3 h, fixed cells, fluorescence or confocal microscopy; for Uptake by HepG2 cells: scored visually, fluorescence microscopy, labelled peptides incubated 3 h at 37°C, L-isomers in media without FCS, D-isomers with FCS.

For series [3], the system named is HepG2 cells. The series is described as follows: Quantification of peptide uptake by overall cell fluorescence in wells (plate reader). Particulars: HepG2, 10 μM, 3 h, media without FCS, plate reader ex 485 nm / em 520 nm, mean ± SD n = 4, Student's t-test.
Protocol: HepG2 cells seeded into 96-well plates were incubated with L-isomeric (a), and D-isomeric (b) peptides at a final concentration of 10 μM in quadruplicate wells. The cells were incubated for 3 h, fixed with 4% formaldehyde, and fluorescence measured using a fluorescent plate reader at an excitation wavelength of 485 nm and emission wavelength of 520 nm. The fluorescence of cells was plotted as the mean ± SD (n = 4).
The cells were washed thrice with media without FCS, and peptides diluted in 100 μl of MEM media without FCS were added to the cells at a final concentration of 10 μM in quadruplicate wells. […] The fluorescence of cells was plotted as the mean ± SD (n = 4).
For series [4], the system named is HepG2 cells. This is another data set of the same source.

Consider `CC(C)C[C@@H](N)C(=O)N[C@H](CS)C(=O)N[C@H](CC(C)C)C(=O)N[C@H](CCCNC(=N)N)C(=O)N1CCC[C@@H]1C(=O)N[C@@H](C(=O)NCC(=O)NCC(=O)NCC(=O)NCC(=O)N1CCC[C@H]1C(=O)N[C@@H](CC(C)C)C(=O)NCC(=O)N[C@@H](CC(C)C)C(=O)N[C@@H](C)C(=O)NCC(=O)NCC(=O)N[C@H](CC(C)C)C(=O)N[C@H](CS)C(=O)N[C@H](CC(C)C)C(=O)N[C@H](CCCNC(=N)N)C(=O)N1CCC[C@@H]1C(=O)N[C@@H](C(=O)NCC(=O)N[C@H](CCCCNC(=S)Nc1ccc2c(c1)C(=O)OC21c2ccc(O)cc2Oc2cc(O)ccc21)C(=O)O)C(C)C)C(C)C` [lclrpvGGGGPLGLAGGlclrpvgk-FITC] (H-[dL][dC][dL][dR][dP][dV]GGGGPLGLAGG[dL][dC][dL][dR][dP][dV]G[dK](FITC)-OH), for which the “Uptake by MCF-7 cells after pretreatment with MMP-9” value with MCF-7 cells (10 μM peptide incubated 3 h at 37°C with activated MMP-9 (0.4 μg/ml)) is given as “led to uptake of the digested peptide”. For the same compound, the “Uptake by MCF-7 cells, peptide not treated with MMP-9” value in the series on MCF-7 cells (10 μM peptide left untreated) is “not cell-permeable”.
Turning to “GRKKRRQRRRPPQGGRRRQQQQQQRRR [penetratin]”, the “Effect on viability of HepG2 cells” value in the series with HepG2 cells [1] is “no significant affect”.
As to IIIR, in the series on WM-266-4 cells, the “Uptake by WM-266-4 cells (in words)” value was “poorly cell-permeable” and the “Uptake by WM-266-4 cells” value is recorded as “-”. Besides, the “Uptake by BT549 cells (in words)” value in the series with BT549 cells was “poorly cell-permeable”. Moreover, in the series with HepG2 cells [2], the “Uptake by HepG2 cells (in words)” value is “improved cell uptake”.
As for LCLE, in the series with WM-266-4 cells, the “Uptake by WM-266-4 cells (in words)” value is “readily taken up” and the “Uptake by WM-266-4 cells” value is given as “+++”. Also, the “Cell-penetrating ability compared with LCLR (overall cell fluorescence in wells)” value with HepG2 cells [3] is reported as “not significantly different”. In addition, in the series on BT549 cells, the “Uptake by BT549 cells (in words)” value is reported as “readily taken up” and the “Uptake by BT-549cells” value was “+++”. For the same compound, in the series on HepG2 cells [2], the “Uptake by HepG2 cells (in words)” value is listed as “less well” and the “Uptake by HepG2 cells” value is listed as “++”.
LCLK: in the series on WM-266-4 cells, the “Uptake by WM-266-4 cells (in words)” value is “taken up well” and the “Uptake by WM-266-4 cells” value is “+++”. Also, the “Cell-penetrating ability compared with LCLR (overall cell fluorescence in wells)” value in the series with HepG2 cells [3] is recorded as “reduced activity”. Besides, in the series with BT549 cells, the “Uptake by BT549 cells (in words)” value is reported as “taken up well”. The “Uptake by HepG2 cells (in words)” value in the series with HepG2 cells [2] is on record as “taken up well”.
Regarding LCLN, in the series with WM-266-4 cells, the “Uptake by WM-266-4 cells” value is recorded as “+”. The “Cell-penetrating ability compared with LCLR (overall cell fluorescence in wells)” value with HepG2 cells [3] is on record as “reduced activity”. Besides, the “Uptake by BT-549cells” value in the series with BT549 cells was “+++”. In the series on HepG2 cells [2], the “Uptake by HepG2 cells” value is reported as “+”.
As for LCLQ, the “Uptake by WM-266-4 cells” value in the series on WM-266-4 cells is “+”. Also, the “Cell-penetrating ability compared with LCLR (overall cell fluorescence in wells)” value in the series on HepG2 cells [3] was “not significantly different”. Also, in the series on BT549 cells, the “Uptake by BT549 cells (in words)” value is listed as “maintained cell-permeability” and the “Uptake by BT-549cells” value is on record as “+++”. For the same compound, in the series on HepG2 cells [2], the “Uptake by HepG2 cells (in words)” value is “did not improve uptake” and the “Uptake by HepG2 cells” value was “++”.
In the case of LCLRPVG, in the series with BT549 cells, the “Uptake by BT-549cells” value was “+++”.
With LCLRPVGGGGGGGGGGGGGGGLCLRPVG, the “Uptake of linear multivalent forms of Xentry by HepG2 cells” value in the series with HepG2 cells [4] was “unable to penetrate”.
LCLRPVGGGRRRQQQQQQRRR: in the series on HepG2 cells [1], the “Effect on HepG2 viability relative to the other three CPPs” value is “least effect” and the “Effect on viability of HepG2 cells” value is given as “no significant affect”.
Turning to LLLLR, in the series on WM-266-4 cells, the “Uptake by WM-266-4 cells (in words)” value was “poorly cell-permeable” and the “Uptake by WM-266-4 cells” value is “-”. Further, in the series with BT549 cells, the “Uptake by BT549 cells (in words)” value is reported as “poorly cell-permeable” and the “Uptake by BT-549cells” value is reported as “+”. Besides, in the series on HepG2 cells [2], the “Uptake by HepG2 cells (in words)” value is reported as “poorly penetrated” and the “Uptake by HepG2 cells” value was “+”.
Take LLLR: in the series on WM-266-4 cells, the “Uptake by WM-266-4 cells (in words)” value was “poorly cell-permeable” and the “Uptake by WM-266-4 cells” value is “-”. Besides, in the series on BT549 cells, the “Uptake by BT549 cells (in words)” value is on record as “poorly cell-permeable” and the “Uptake by BT-549cells” value was “-”. Further, in the series with HepG2 cells [2], the “Uptake by HepG2 cells (in words)” value was “poorly penetrated” and the “Uptake by HepG2 cells” value was “-”.
With LLLRR, in the series with WM-266-4 cells, the “Uptake by WM-266-4 cells (in words)” value is recorded as “poorly cell-permeable” and the “Uptake by WM-266-4 cells” value was “-”. Also, in the series on BT549 cells, the “Uptake by BT549 cells (in words)” value is reported as “poorly cell-permeable” and the “Uptake by BT-549cells” value is recorded as “-”. Besides, in the series on HepG2 cells [2], the “Uptake by HepG2 cells (in words)” value is “failed to improve cell-penetrating ability” and the “Uptake by HepG2 cells” value was “-”.
Regarding VVVR, in the series on WM-266-4 cells, the “Uptake by WM-266-4 cells (in words)” value is on record as “poorly cell-permeable” and the “Uptake by WM-266-4 cells” value is recorded as “-”. In the series on BT549 cells, the “Uptake by BT549 cells (in words)” value is “poorly cell-permeable” and the “Uptake by BT-549cells” value was “-”. Besides, in the series on HepG2 cells [2], the “Uptake by HepG2 cells (in words)” value is given as “improved cell uptake” and the “Uptake by HepG2 cells” value was “++”.
